According to ChEMBL document CHEMBL4321825, “Discovery of a Series of 5-Azaquinazolines as Orally Efficacious IRAK4 Inhibitors Targeting MyD88L265P Mutant Diffuse Large B Cell Lymphoma” (J Med Chem, 2019):
pIC50: −log10 of the molar value. In brackets after ≈: the same amount, converted by molar mass. Activity calls are given as the source filed them. The rule behind the calls is not given here.

Legend:
[1] = biological target: T1, Interleukin-1 receptor-associated kinase 4 (Homo sapiens, UniProt Q9NWZ3); test: Inhibition of IRAK4 (unknown origin) by cell based assay
T1 sequence (Q9NWZ3 whole entry): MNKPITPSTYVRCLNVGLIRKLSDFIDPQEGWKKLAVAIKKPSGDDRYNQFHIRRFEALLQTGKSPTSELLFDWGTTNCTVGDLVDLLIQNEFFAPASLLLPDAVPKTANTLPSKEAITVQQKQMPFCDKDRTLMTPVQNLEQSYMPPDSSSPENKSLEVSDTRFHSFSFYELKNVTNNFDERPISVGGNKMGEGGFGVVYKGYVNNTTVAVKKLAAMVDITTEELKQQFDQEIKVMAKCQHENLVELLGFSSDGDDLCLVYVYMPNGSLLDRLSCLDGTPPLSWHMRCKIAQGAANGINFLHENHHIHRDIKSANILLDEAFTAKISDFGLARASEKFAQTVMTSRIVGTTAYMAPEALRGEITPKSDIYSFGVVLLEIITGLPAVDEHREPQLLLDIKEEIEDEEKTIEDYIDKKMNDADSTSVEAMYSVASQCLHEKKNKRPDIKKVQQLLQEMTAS

[2] = Lipophilicity, logD of the compound at pH 7.4 by shake-flask assay; format: physicochemical; conditions: buffer
[3] = Intrinsic clearance in rat hepatocytes assessed per million cells; format: ADME, cell-based, Hepatocyte; conditions: read-out: CLH
[4] = biological target: T1, Interleukin-1 receptor-associated kinase 4; test: Inhibition of IRAK4 (unknown origin) in presence of 5 mM ATP by enzymatic assay
[5] = Intrinsic clearance in human hepatocytes assessed per million cells; format: ADME, cell-based, Hepatocyte; conditions: read-out: CLH
[6] = Efflux ratio in human Caco2 cells; format: ADME, cell-based; conditions: Caco-2
[7] = Clearance in rat at 0.5 mg/kg, iv; format: ADME, organism-based; conditions: in vivo
[8] = Intrinsic permeability in human Caco2 cells; format: ADME, cell-based; conditions: Caco-2
[9] = Oral bioavailability in rat at 1 mg/kg; format: ADME, organism-based; conditions: in vivo
[10] = biological target: T2, Cyclin-dependent kinase 9 (Homo sapiens, UniProt P50750); test: Inhibition of CDK9 (unknown origin)
T2 sequence (P50750 whole entry): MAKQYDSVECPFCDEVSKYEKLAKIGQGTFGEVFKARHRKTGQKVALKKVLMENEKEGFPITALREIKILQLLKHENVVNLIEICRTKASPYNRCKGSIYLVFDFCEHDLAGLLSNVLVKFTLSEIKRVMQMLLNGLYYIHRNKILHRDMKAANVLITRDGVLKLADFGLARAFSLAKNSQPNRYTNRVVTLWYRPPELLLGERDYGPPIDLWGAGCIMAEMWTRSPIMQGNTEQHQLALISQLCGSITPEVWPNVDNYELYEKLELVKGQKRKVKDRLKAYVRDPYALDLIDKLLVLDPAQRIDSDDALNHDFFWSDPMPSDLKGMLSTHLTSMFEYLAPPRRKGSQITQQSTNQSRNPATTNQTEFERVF

[11] = Unbound fraction in human plasma at 37 degC by equilibrium dialysis; format: ADME, cell-free
[12] = biological target: T2, Cyclin-dependent kinase 9; test: Inhibition of CDK9 (unknown origin) at 1 uM relative to control
[13] = AUC in SCID mouse at 50 mg/kg, po; format: ADME, organism-based; conditions: in vivo
[14] = Plasma clearance in Han Wistar rat at 1 mg/kg, iv; format: ADME, organism-based
[15] = biological target: Dual specificity protein kinase CLK3 (Homo sapiens, UniProt P49761); test: Inhibition of human recombinant CLK3 expressed in Baculovirus system
Chain of Dual specificity protein kinase CLK3 (P49761 whole entry): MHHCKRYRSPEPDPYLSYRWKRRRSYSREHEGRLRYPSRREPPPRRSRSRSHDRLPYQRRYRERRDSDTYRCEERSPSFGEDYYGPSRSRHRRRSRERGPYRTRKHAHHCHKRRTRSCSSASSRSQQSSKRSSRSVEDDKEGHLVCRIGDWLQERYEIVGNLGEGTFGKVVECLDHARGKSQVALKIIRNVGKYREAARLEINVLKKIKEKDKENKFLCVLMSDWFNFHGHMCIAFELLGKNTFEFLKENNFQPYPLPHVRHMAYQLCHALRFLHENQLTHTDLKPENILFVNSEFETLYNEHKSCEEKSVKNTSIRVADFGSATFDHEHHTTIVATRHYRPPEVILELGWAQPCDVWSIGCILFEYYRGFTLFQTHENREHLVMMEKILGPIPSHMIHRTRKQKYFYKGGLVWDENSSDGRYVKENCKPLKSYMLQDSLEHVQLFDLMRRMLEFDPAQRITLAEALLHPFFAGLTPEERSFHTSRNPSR

[16] = Aqueous solubility in pH 7.4 phosphate buffer; format: physicochemical
[17] = biological target: Mitogen-activated protein kinase kinase kinase 9 (Homo sapiens) (UniProt P80192); test: Inhibition of MLK1 (unknown origin) at 1 uM relative to control
Chain of Mitogen-activated protein kinase kinase kinase 9 (Homo sapiens) (P80192 whole entry, looked up): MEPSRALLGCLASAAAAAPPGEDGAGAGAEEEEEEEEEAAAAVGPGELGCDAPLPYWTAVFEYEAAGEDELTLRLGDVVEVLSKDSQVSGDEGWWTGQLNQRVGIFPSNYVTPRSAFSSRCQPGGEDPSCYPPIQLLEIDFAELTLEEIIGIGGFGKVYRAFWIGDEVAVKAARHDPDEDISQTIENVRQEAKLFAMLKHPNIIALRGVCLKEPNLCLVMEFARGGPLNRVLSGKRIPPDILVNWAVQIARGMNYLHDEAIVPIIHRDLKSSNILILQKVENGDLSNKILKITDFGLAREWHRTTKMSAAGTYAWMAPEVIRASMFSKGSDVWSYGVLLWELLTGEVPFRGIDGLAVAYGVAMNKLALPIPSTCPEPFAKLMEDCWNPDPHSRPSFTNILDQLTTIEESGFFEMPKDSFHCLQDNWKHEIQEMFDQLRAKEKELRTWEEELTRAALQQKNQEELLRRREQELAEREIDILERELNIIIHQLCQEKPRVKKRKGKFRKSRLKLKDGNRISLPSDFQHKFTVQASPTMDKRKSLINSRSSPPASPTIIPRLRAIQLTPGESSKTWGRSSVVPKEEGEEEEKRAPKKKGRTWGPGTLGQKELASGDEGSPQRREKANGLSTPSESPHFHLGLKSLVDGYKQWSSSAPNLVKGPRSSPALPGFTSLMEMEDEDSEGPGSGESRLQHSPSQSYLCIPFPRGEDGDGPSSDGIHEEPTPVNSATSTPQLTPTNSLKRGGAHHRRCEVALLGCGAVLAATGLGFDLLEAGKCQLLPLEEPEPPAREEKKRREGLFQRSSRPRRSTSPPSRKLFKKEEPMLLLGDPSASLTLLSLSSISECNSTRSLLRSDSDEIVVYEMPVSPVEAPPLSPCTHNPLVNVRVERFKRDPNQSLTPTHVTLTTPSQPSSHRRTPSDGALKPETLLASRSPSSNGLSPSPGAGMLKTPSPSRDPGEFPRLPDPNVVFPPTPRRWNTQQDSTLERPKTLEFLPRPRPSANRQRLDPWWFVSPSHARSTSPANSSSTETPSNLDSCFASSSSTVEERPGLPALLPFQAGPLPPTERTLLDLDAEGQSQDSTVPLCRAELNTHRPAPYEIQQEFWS

[18] = biological target: Dual specificity protein kinase CLK2 (Homo sapiens, UniProt P49760); test: Inhibition of human recombinant CLK2 expressed in Baculovirus system
Chain of Dual specificity protein kinase CLK2 (P49760 whole entry): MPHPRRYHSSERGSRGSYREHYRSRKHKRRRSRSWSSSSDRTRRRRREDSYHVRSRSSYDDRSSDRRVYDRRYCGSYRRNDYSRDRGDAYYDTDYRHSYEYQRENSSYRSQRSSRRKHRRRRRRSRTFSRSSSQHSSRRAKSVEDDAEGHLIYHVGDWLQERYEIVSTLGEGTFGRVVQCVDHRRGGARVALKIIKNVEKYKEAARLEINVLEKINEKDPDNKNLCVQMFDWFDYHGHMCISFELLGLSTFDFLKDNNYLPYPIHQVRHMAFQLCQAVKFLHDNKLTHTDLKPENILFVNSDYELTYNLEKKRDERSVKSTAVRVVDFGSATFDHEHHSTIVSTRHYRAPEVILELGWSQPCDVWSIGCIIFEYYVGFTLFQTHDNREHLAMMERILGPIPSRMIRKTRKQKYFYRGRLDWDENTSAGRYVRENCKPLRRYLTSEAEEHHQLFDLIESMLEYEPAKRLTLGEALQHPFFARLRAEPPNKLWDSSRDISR

[19] = biological target: Cyclin-dependent kinase 7 (Homo sapiens, UniProt P50613); test: Inhibition of CDK7 (unknown origin)
Chain of Cyclin-dependent kinase 7 (P50613 whole entry): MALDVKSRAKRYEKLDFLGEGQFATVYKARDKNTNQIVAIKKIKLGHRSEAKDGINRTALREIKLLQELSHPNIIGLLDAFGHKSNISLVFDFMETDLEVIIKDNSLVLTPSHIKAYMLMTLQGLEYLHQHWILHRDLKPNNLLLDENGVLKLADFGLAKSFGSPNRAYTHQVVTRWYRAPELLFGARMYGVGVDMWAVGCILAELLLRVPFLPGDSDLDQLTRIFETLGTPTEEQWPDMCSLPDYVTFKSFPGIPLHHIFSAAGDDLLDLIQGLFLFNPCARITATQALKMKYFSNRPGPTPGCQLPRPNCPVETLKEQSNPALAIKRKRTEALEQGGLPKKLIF

[20] = tested on: OCI-Ly10; test: Antitumor activity against human OCI-LY10 cells xenografted in CB.17 SCID mouse assessed as inhibition of tumor growth at 50 mg/kg, po QD dosed 34 days after tumor cell inoculation; format: functional, organism-based
[21] = biological target: CDK8/Cyclin C (Homo sapiens, UniProt P49336); test: Inhibition of human recombinant CDK8/cyclinC expressed in Baculovirus system
Chain of CDK8/Cyclin C (P49336 whole entry): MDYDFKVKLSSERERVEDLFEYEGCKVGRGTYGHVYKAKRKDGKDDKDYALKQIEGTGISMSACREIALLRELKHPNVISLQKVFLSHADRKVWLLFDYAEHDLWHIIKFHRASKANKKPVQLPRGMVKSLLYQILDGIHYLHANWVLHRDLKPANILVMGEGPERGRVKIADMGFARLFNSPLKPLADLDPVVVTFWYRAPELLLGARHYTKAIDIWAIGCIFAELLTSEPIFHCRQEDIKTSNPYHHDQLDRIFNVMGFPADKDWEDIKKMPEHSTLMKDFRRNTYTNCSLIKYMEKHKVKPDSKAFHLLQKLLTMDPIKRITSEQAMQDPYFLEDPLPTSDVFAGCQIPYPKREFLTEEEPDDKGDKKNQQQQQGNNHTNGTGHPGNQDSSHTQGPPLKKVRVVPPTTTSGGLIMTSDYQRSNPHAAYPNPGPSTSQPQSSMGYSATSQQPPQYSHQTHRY
Chain of CDK8/Cyclin C (P24863 whole entry, further chain): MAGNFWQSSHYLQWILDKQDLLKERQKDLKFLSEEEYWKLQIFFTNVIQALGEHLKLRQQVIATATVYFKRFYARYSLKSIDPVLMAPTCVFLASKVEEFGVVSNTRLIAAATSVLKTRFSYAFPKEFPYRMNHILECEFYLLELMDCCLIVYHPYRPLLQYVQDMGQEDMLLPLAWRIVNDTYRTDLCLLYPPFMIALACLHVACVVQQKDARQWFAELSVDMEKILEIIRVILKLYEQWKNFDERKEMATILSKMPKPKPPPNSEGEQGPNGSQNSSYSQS

[22] = Oral bioavailability in Han Wistar rat at 2 mg/kg; format: ADME, organism-based; conditions: in vivo
[23] = Volume of distribution at steady state in Han Wistar rat at 1 mg/kg, iv; format: ADME, organism-based; conditions: in vivo, read-out: Vdss
[24] = biological target: Interleukin-1 receptor-associated kinase 1 (Homo sapiens, UniProt P51617); test: Inhibition of IRAK1 (unknown origin)
[25] = Unbound fraction in mouse plasma at 37 degC by equilibrium dialysis; format: ADME, cell-free
[26] = biological target: Dual specificity protein kinase CLK1 (Homo sapiens, UniProt P49759); test: Inhibition of human recombinant CLK1 expressed in Escherichia coli
Chain of Dual specificity protein kinase CLK1 (P49759 whole entry): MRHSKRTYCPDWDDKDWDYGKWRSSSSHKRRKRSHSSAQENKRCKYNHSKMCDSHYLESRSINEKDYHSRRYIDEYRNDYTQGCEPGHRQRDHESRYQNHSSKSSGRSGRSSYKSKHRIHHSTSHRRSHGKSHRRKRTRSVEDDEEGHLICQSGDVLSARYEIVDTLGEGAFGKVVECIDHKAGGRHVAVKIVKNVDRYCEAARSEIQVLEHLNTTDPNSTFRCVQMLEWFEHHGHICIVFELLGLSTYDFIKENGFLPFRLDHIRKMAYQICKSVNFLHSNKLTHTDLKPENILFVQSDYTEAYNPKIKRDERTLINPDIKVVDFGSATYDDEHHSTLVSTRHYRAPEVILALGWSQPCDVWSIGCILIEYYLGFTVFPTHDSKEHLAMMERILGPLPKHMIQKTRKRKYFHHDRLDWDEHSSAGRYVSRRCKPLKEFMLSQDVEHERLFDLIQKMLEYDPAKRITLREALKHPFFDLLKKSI

[27] = biological target: T3, Serine/threonine-protein kinase ULK2 (Homo sapiens) (UniProt Q8IYT8); test: Inhibition of ULK2 (unknown origin) at 1 uM relative to control
T3 sequence (whole entry): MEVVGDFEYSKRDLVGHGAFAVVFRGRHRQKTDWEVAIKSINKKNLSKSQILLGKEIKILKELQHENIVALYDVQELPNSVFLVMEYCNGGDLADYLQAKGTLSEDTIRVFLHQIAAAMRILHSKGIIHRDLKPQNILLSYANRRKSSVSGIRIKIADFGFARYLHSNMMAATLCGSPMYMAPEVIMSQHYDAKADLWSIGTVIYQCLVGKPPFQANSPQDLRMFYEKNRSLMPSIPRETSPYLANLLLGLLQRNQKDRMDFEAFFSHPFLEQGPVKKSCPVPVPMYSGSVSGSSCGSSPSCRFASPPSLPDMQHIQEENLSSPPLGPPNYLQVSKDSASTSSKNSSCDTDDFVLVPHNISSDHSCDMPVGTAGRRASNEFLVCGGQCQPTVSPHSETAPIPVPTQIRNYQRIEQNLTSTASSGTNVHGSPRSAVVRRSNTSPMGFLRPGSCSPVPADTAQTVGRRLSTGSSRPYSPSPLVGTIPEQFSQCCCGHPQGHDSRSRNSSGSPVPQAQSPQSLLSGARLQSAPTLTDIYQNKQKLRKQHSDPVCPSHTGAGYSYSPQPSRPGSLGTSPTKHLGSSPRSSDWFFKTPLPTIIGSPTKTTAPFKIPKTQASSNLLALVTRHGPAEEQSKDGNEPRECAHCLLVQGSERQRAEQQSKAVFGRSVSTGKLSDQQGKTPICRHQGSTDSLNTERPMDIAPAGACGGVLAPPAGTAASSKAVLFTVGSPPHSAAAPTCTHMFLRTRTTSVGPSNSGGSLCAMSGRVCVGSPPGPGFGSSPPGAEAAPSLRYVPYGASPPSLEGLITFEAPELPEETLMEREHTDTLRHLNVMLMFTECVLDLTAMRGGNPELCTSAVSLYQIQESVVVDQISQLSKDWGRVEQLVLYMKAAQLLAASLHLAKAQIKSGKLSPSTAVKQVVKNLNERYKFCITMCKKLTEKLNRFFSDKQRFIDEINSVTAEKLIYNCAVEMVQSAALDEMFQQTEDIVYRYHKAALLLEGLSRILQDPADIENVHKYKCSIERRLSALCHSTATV

[28] = tested on: OCI-Ly10; test: Antitumor activity against human OCI-LY10 cells xenografted in CB.17 SCID mouse assessed as induction of tumor regression at 50 mg/kg, po QD dosed 34 days after tumor cell inoculation and co-treated with 12 mg/kg, po QD ibrutinib; format: functional, organism-based
[29] = Unbound fraction in rat plasma at 37 degC by equilibrium dialysis; format: ADME, cell-free
[30] = biological target: Dual specificity protein kinase CLK4 (Homo sapiens, UniProt Q9HAZ1); test: Inhibition of human recombinant CLK4 expressed in Baculovirus system
Chain of Dual specificity protein kinase CLK4 (Q9HAZ1 whole entry, canonical isoform): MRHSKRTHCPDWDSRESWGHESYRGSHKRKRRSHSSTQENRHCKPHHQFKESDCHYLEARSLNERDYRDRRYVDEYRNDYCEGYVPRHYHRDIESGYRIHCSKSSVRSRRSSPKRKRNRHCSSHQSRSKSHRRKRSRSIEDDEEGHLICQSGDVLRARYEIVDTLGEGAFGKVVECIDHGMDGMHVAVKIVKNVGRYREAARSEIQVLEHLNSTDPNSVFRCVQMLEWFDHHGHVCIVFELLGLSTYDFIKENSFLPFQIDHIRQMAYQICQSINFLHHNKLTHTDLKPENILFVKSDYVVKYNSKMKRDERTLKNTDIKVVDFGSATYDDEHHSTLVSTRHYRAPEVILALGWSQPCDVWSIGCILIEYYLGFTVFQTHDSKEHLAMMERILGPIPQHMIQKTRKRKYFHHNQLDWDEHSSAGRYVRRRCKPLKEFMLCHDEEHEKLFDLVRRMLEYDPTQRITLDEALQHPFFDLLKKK

[31] = biological target: Casein kinase I isoform gamma-1 (Homo sapiens) (UniProt Q9HCP0); test: Inhibition of CK1g1 (unknown origin) at 1 uM relative to control
Chain of Casein kinase I isoform gamma-1 (Homo sapiens) (Q9HCP0 whole entry, looked up, canonical isoform): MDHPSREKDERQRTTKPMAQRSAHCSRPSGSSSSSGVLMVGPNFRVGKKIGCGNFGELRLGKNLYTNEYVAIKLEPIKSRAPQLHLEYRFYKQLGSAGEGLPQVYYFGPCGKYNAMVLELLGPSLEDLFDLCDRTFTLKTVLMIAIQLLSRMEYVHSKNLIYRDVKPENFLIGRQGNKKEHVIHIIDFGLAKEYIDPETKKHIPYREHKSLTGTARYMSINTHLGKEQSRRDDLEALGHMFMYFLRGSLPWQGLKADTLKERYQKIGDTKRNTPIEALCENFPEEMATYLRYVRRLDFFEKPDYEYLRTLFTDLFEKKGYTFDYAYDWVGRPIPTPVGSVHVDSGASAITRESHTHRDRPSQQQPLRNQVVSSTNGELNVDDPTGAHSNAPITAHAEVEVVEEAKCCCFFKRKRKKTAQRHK

Compound: COC(=O)N1CCN([C@H]2CC[C@H](Nc3nc(Nc4cnn(C)c4)nc4ccc(C#N)nc34)CC2)CC1
- pIC50 [1]: 7.32
- logD [2]: 2.7
- hepatocyte CLint [3]: 2.6 µL/min/1e6 cells
- pIC50 [4]: 8.30

Compound: COC(=O)N1CCN([C@H]2CC[C@H](Nc3nc(Nc4cnn(C)c4)nc4ccc(C(C)(C)C#N)nc34)CC2)CC1
- pIC50 [1]: 5.80
- logD [2]: 3
- hepatocyte CLint [3]: 18 µL/min/1e6 cells
- pIC50 [4]: 7.16

Compound: CC(=O)N1CCN([C@H]2CC[C@H](Nc3nc(Nc4cnn(C)c4)nc4ccc(C#N)cc34)CC2)CC1
- pIC50 [1]: 6.40
- hepatocyte CLint [5]: < 1 µL/min/1e6 cells
- logD [2]: 2.3
- hepatocyte CLint [3]: 3.2 µL/min/1e6 cells
- efflux ratio [6]: 323
- pIC50 [4]: 9.00
- clearance [7]: 17 mL/min/kg
- Papp [8]: < 0.2 ×10⁻⁶ cm/s

Compound: COC(=O)N1CCN([C@H]2CC[C@H](Nc3nc(Nc4cnn(C)c4)nc4ccc(C#N)cc34)CC2)CC1
- pIC50 [1]: 7.47
- hepatocyte CLint [5]: < 1 µL/min/1e6 cells
- logD [2]: 3.2
- hepatocyte CLint [3]: 5.4 µL/min/1e6 cells
- efflux ratio [6]: 46
- pIC50 [4]: 9.00
- clearance [7]: 11 mL/min/kg
- bioavailability [9]: 10%
- Papp [8]: 3 ×10⁻⁶ cm/s

Compound: N#Cc1ccc2ncnc(N[C@H]3CC[C@H](N4CCOCC4)CC3)c2c1
- pIC50 [1]: 6.60
- hepatocyte CLint [5]: < 1.2 µL/min/1e6 cells
- logD [2]: 1.6
- hepatocyte CLint [3]: 3.4 µL/min/1e6 cells
- efflux ratio [6]: 1.6
- pIC50 [4]: 7.34
- clearance [7]: 20 mL/min/kg
- bioavailability [9]: 29%
- Papp [8]: 18 ×10⁻⁶ cm/s

Compound: COC(=O)N1CCN([C@H]2CC[C@H](Nc3nc(Nc4cnn(C)c4)nc4ccc(C)nc34)CC2)CC1
- pIC50 [1]: 6.85
- hepatocyte CLint [5]: 13 µL/min/1e6 cells
- logD [2]: 2.6
- hepatocyte CLint [3]: 10 µL/min/1e6 cells
- efflux ratio [6]: 0.9
- pIC50 [4]: 8.05
- Papp [8]: 7.9 ×10⁻⁶ cm/s

Compound: COC(=O)N1CCN([C@H]2CC[C@H](Nc3nc(Nc4cnn(C)c4)nc4ccc(C5(C#N)CC5)nc34)CC2)CC1
- pIC50 [1]: 7.21
- hepatocyte CLint [5]: 4 µL/min/1e6 cells
- logD [2]: 3.2
- hepatocyte CLint [3]: 7.3 µL/min/1e6 cells
- pIC50 [4]: 7.77

Compound: COC(=O)N1CCN([C@H]2CC[C@H](Nc3ncnc4ccc(C)nc34)CC2)CC1
- pIC50 [1]: 6.08
- hepatocyte CLint [5]: < 1 µL/min/1e6 cells
- logD [2]: 2
- hepatocyte CLint [3]: 5.2 µL/min/1e6 cells
- efflux ratio [6]: 0.8
- pIC50 [4]: 6.55
- Papp [8]: 35 ×10⁻⁶ cm/s

Compound: COC(=O)N1CCN([C@H]2CC[C@H](Nc3ncnc4ccc(C#N)cc34)CC2)CC1
- pIC50 [10]: 6.43
- fraction unbound [11]: 0.23
- hepatocyte CLint [5]: < 1 µL/min/1e6 cells
- logD [2]: 2.2
- inhibition [12]: 84%
- hepatocyte CLint [3]: < 1.6 µL/min/1e6 cells
- AUC [13]: 390 µM·h
- clearance [14]: 7.4 mL/min/kg
- pIC50 [15]: < 5.00
- solubility [16]: 130 µM (≈ 51.3 µg/mL)
- inhibition [17]: 51%
- pIC50 [18]: 6.44
- pIC50 [19]: 5.51
- clearance [7]: 7.4 mL/min/kg
- TGI [20]: Active
- pIC50 [21]: 7.17
- bioavailability [22]: > 100%
- Vd [23]: 1.3 L/kg
- pIC50 [24]: 7.36
- fraction unbound [25]: 0.28
- pIC50 [26]: 5.77
- bioavailability [9]: > 100%
- Papp [8]: 20 ×10⁻⁶ cm/s
- inhibition [27]: 58%
- Activity [28]: Active
- fraction unbound [29]: 0.05
- pIC50 [30]: 6.21
- inhibition [31]: 53%

Compound: COC(=O)N1CCN([C@H]2CC[C@H](Nc3nc(Nc4cnn(C)c4)nc4ccc(C(C)C#N)nc34)CC2)CC1 (stereo partly drawn)
- pIC50 [1]: 6.89
- logD [2]: 2.8
- hepatocyte CLint [3]: 26 µL/min/1e6 cells
- pIC50 [4]: 8.22

Compound: CC(=O)N1CCN([C@H]2CC[C@H](Nc3ncnc4ccc(C#N)cc34)CC2)CC1
- pIC50 [1]: 6.38
- hepatocyte CLint [5]: < 1 µL/min/1e6 cells
- logD [2]: 1.4
- hepatocyte CLint [3]: < 1 µL/min/1e6 cells
- efflux ratio [6]: 19
- pIC50 [4]: 6.91
- clearance [7]: 19 mL/min/kg
- Papp [8]: 4.2 ×10⁻⁶ cm/s

Compound: Cn1cc(Nc2nc(N[C@H]3CC[C@H](N4CCOCC4)CC3)c3cc(C#N)ccc3n2)cn1
- pIC50 [1]: 7.23
- hepatocyte CLint [5]: < 1 µL/min/1e6 cells
- logD [2]: 2.6
- hepatocyte CLint [3]: 18 µL/min/1e6 cells
- efflux ratio [6]: 94
- pIC50 [4]: 8.70
- clearance [7]: 31 mL/min/kg
- bioavailability [9]: 5%

Compound: COC(=O)N1CCN([C@H]2CC[C@H](Nc3ncnc4ccc(C)cc34)CC2)CC1
- pIC50 [1]: 6.70
- hepatocyte CLint [5]: < 1 µL/min/1e6 cells
- logD [2]: 2.5
- hepatocyte CLint [3]: 10 µL/min/1e6 cells
- efflux ratio [6]: 0.7
- pIC50 [4]: 7.42
- Papp [8]: 28 ×10⁻⁶ cm/s
